Results as given in US10227331B2 (priority 2015, dated 2019).

Columns and labels:
[1] = system: P. aeruginosa expressing IMP-1, efflux− (MB9799); assay: Efflux: concentration of MBL inhibitor which restores susceptibility to imipenem; type: cell-based, Pseudomonas aeruginosa; settings: imipenem at 2 μg/mL, in the presence of a class A, C, D serine β-lactamase inhibitor closely related to relebactam
Source text: (§1) The strain background is Pseudomonas aeruginosa PAO1.

VIM-1 = VIM-1 (Pseudomonas aeruginosa (strain ATCC 15692 / DSM 22644 / CIP 104116 / JCM 14847 / LMG 12228 / 1C / PRS 101 / PAO1), UniProt A0A0F7KYQ8); assay: biochemical; settings: CCF2-FA substrate, 2 hours at 25° C
Summary of the method: (§2)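 Inhibitor was mixed with the metallo-β-lactamase and CCF2-FA. After 2 hours at 25° C, fluorescence of the coumarin–fluorescein cephalosporin substrate was read. IC50 was calculated with a 4-parameter fit.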

[2] = system: Serratia marcescens expressing IMP-1 (CL5741); type: cell-based; settings: with imipenem 1 μg/ml; 95% inhibition of bacterial growth
Summary of the method: (§3)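 Colonies from overnight 35 °C blood-agar cultures were suspended in saline, diluted 1:100 into 1.1× CAMHB and exposed to test compound with or without imipenem at 1 μg/ml. After 22–24 h at 35 °C, absorbance was read to find the concentration restoring imipenem susceptibility.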

[3] = system: Klebsiella pneumoniae expressing VIM-1 (IHMA599644); type: cell-based; settings: with imipenem 1 μg/ml; 95% inhibition of bacterial growth
Summary of the method: as §3

[4] = system: Escherichia coli expressing NDM-1 (CLB30005, CLB30016); type: cell-based; settings: with imipenem 1 μg/ml; 95% inhibition of bacterial growth
Summary of the method: as §3

IMP-1 = IMP-1 (Serratia marcescens, UniProt P52699); assay: biochemical; type: biochemical; settings: CCF2-FA substrate, 2 hours at 25° C; read-out: IMP-1 IC50
Summary of the method: as §2

NDM-1 = NDM-1 (Klebsiella pneumoniae, UniProt C7C422); assay: biochemical; type: biochemical; settings: CCF2-FA substrate, 2 hours at 25° C; read-out: NDM-1 IC50
Summary of the method: as §2

[5] = system: P. aeruginosa expressing IMP-1, efflux+ (MB9798); type: cell-based, Pseudomonas aeruginosa; settings: for P. aeruginosa expressing IMP-1, efflux+ (MB9798) MITC95: imipenem at 2 μg/mL, in the presence of a class A, C, D serine β-lactamase inhibitor closely related to relebactam; for Efflux ratio: ratio MITC95 PA_9798/MITC95 PA_9799
Source text: as §1

Sequence of IMP-1 (P52699 whole entry, looked up, species assumed): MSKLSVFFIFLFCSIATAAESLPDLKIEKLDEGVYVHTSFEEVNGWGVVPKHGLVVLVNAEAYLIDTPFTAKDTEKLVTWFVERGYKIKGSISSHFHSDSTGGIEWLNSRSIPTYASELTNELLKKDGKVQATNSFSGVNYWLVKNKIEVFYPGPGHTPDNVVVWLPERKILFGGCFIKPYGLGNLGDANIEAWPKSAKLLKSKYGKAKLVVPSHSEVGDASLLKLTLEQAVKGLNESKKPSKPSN
Sequence of NDM-1 (C7C422 whole entry, looked up, species assumed): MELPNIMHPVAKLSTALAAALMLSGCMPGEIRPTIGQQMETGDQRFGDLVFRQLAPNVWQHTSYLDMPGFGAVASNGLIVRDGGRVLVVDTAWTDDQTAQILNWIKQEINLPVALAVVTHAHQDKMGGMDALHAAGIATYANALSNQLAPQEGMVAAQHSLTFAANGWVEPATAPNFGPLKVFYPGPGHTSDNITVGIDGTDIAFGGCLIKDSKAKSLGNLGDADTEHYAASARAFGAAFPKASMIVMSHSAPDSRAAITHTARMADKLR

Row | SMILES | P. aeruginosa expressing IMP-1, efflux− (MB9799) MITC95 [1] | IC50 (VIM-1) | Serratia marcescens expressing IMP-1 (CL5741) MITC95 [2] | Klebsiella pneumoniae expressing VIM-1 (IHMA599644) MITC95 [3] | Escherichia coli expressing NDM-1 (CLB30016) MITC95 [4] | IC50 (IMP-1) | IC50 (NDM-1) | P. aeruginosa expressing IMP-1, efflux+ (MB9798) MITC95 [5] | Efflux ratio [5]
1 | NC1CCC(c2ccc(S(=O)(=O)C3CCNCC3)c(S(N)(=O)=O)c2-c2nnn[nH]2)CC1 (stereo not drawn) [Example 206, 3-(4-aminocyclohexyl)-6-(piperidin-4-ylsulfonyl)-2-(1H-tetrazol-5-yl) benzenesulfonamide] | 1.563 µM | 0.857 nM | 3.125 µM | 3.125 µM | 6.25 µM | 23.5 nM | 20.3 nM | 3.125 µM | 2.00
2 | NS(=O)(=O)c1c(S(=O)(=O)C2CCNCC2)ccc([C@H]2CC[C@H](N)CC2)c1-c1nnn[nH]1 [Example 207, 3-((1r,4r)-4-aminocyclohexyl)-6-(piperidin-4-ylsulfonyl)-2-(1H-tetrazol-5-yl) benzenesulfonamide] | 1.563 µM | 0.71 nM | 3.125 µM | 3.125 µM | 2.344 µM | 24.6 nM | 15.9 nM | 3.125 µM | 2.00
3 | NS(=O)(=O)c1c(S(=O)(=O)C2CCNCC2)ccc([C@H]2CC[C@@H](N)CC2)c1-c1nnn[nH]1 [Example 208, 3-((1s,4s)-4-aminocyclohexyl)-6-(piperidin-4-ylsulfonyl)-2-(1H-tetrazol-5-yl) benzenesulfonamide] | 3.125 µM | 18.6 nM | 3.125 µM | 6.25 µM | 1.563 µM | 124 nM | 20.6 nM | 6.25 µM | 2.00
4 | CS(=O)(=O)c1ccc([C@H]2CC[C@@H](N)CC2)c(-c2nnn[nH]2)c1S(N)(=O)=O [Example 209, 3-((1s,4s)-4-aminocyclohexyl)-6-(methylsulfonyl)-2-(1H-tetrazol-5-yl) benzenesulfonamide] | 3.125 µM | 52.1 nM | 6.25 µM | 25 µM | 3.125 µM | 65.3 nM | 16.4 nM | 50 µM | 16.00
5 | CS(=O)(=O)c1ccc([C@H]2CC[C@H](N)CC2)c(-c2nnn[nH]2)c1S(N)(=O)=O [Example 210, 3-((1r,4r)-4-aminocyclohexyl)-6-(methylsulfonyl)-2-(1H-tetrazol-5-yl) benzenesulfonamide] | 0.7813 µM | 0.566 nM | 1.563 µM | 3.125 µM | 3.125 µM | 7.76 nM | 32.2 nM | 12.5 µM | 16.00
6 | CCCS(=O)(=O)c1ccc(C2=CCC(N)CC2)c(-c2nnn[nH]2)c1S(N)(=O)=O (stereo not drawn) [Example 211, 4′-amino-4-(propylsulfonyl)-2-(1H-tetrazol-5-yl)-2′,3′,4′,5′-tetrahydro-[1,1′-biphenyl]-3-sulfonamide] | 1.563 µM | 0.785 nM | 6.25 µM | 25 µM | 12.5 µM | 6.32 nM | 24.3 nM | 50 µM | 31.99
